ChEMBL document CHEMBL1201862, “PubChem BioAssay data set” (2004)
Calls of active or inactive are those of the source.

Legend:
[1] = molecular target: T1, Heat shock factor protein 1 (Mus musculus, UniProt P38532); test: inhibition of MG132-induced HSE-luciferase signal, confirmation, cell-based, NIH3T3, luminescence, dose retest (AID 2382); type: functional;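 note: NIH3T3 fibroblasts with HSF1-driven luciferase reporter stressed by proteasome inhibitor MG132; luminescence from HSF1-driven luciferase expression after 8 hours of MG132 stress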
T1 sequence (P38532 whole entry): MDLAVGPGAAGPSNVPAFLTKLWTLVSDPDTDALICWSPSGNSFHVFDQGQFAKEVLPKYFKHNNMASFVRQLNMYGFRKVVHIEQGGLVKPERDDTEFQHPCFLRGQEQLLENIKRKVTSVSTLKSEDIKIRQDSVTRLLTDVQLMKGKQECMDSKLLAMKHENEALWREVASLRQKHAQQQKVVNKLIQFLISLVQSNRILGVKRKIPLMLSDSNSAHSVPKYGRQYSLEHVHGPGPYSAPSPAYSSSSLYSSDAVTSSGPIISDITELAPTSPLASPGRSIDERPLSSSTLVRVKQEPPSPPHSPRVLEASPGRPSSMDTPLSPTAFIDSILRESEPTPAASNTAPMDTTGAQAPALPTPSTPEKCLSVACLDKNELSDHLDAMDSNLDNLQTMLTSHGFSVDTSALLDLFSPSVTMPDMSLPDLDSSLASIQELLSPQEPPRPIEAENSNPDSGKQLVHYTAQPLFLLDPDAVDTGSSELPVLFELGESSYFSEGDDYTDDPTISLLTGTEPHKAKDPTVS

[2] = cytotoxicity in HEK-293T cells, dose response, cytotoxicity control for BCR NF-kB inhibitor project, luminescence, B-cell screen hits (AID 489021); type: functional, cell-based;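 note: HEK-293T cells carrying an NF-kB luciferase reporter; cells exposed to compound for about 14 hours before viability readout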
HEK293 [3] = test: SAR Analysis of small molecule inhibitors of T-cell specific antigen receptor-induced NF-kB activation in a HEK-293T cell line using a luminescence assay - Set 2. [Related pubchem assays (depositor defined):AID435003, AID435012, AID489026]; type: functional, cell-based; details: Homo sapiens
Protein Wnt-3a [4] = molecular target: T2, Protein Wnt-3a (Mus musculus, UniProt P27467); test: SAR analysis of small molecule antagonists of Gli-SUFU in a Wnt3a luminescent reporter assay.; type: functional
Jurkat = test: SAR Analysis of small molecule inhibitors of T-cell specific antigen receptor-induced NF-kB activation in a Jurkat cell line using a luminescence assay - Set 2. [Related pubchem assays (depositor defined):AID435003, AID435012, AID465]; type: functional, cell-based; details: Homo sapiens
HEK293 [5] = test: cytotoxicity in HEK293T NF-kB-Luc cells, SAR follow-up, cytotoxicity control for NF-kB activator project, cell-based, resazurin fluorescence (AID 493251); type: functional; details: Homo sapiens
DNA topoisomerase = DNA topoisomerase (Yersinia pestis, UniProt A0A2S9PM60); test: Y. pestis Topo-I inhibitors, cleavage product readout, dose response, biochemical, cherry-pick (AID 588525)
HEK293 [6] = test: inhibitors of LMP1-driven NF-kB reporter, dose response, cell-based, HEK293, luciferase, cherry-pick (AID 588343); type: functional; details: Homo sapiens
Candida albicans [7] = test: growth inhibition of resistant C. albicans, dose response, CaCi-8 strain, fluconazole, dry powder, set 4 (AID 488950); type: functional, organism-based
Protein Wnt-3a [8] = molecular target: T2, Protein Wnt-3a; test: Wnt3a-driven reporter signaling inhibition, dose response, selectivity assay for Gli-SUFU antagonist project, Wnt-LIGHT cells, luminescence (AID 651570); type: functional; details: read-out: IC50_Mean;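 note: Wnt-LIGHT reporter cells stimulated with conditioned medium from Wnt3a-producing cells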
Candida albicans [9] = test: Candida albicans growth inhibition, agent alone, dose response, counter-screen for reversing antifungal drug resistance, CaCi-2 strain, no fluconazole, dry powder, set 4 (AID 488932); type: functional, organism-based
Candida albicans [10] = test: growth inhibition of azole-resistant C. albicans, dose response, CaCi-8 strain, Alamar Blue, dry powder, set 2 (AID 488909); type: functional, organism-based
Candida albicans [11] = test: fluconazole resistance reversal in C. albicans, dose response, CaCi-2 strain, Alamar Blue, dry powder, set 4 (AID 488943); type: functional, organism-based
Candida albicans [12] = test: C. albicans growth inhibition with fluconazole, dose response, antifungal resistance reversal project, CaCi-2 strain, Alamar Blue, dry powder, set 2 (AID 488930); type: functional, organism-based
Nonstructural protein 1 = Nonstructural protein 1 (Influenza A virus, UniProt Q194T2); type: functional, Influenza A virus (A/California/07/2009(H1N1))
[13] = molecular target: Latent membrane protein 1 (Human herpesvirus 4 (strain B95-8), UniProt P03230); test: TES1-eGFP NF-kB reporter inhibition versus Tet-On dsRED, dose response, selectivity assay for LMP1 NF-kB inhibitor project, imaging, HEK293T, dual-color eGFP/dsRED, cherry-picks (AID 588398); type: functional, cell-based
Chain of Latent membrane protein 1 (P03230 whole entry): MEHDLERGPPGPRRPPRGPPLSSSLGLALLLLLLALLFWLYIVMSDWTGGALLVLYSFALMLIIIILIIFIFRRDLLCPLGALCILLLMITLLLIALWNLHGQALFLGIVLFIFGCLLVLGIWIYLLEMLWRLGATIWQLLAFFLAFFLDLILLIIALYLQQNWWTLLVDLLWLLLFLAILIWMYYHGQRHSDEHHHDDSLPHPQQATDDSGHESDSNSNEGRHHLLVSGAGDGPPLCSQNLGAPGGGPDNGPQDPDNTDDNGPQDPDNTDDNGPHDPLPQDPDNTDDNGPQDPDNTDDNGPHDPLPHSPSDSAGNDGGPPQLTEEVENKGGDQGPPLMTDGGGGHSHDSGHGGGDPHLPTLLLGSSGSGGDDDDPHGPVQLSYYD

T2 sequence (P27467 whole entry): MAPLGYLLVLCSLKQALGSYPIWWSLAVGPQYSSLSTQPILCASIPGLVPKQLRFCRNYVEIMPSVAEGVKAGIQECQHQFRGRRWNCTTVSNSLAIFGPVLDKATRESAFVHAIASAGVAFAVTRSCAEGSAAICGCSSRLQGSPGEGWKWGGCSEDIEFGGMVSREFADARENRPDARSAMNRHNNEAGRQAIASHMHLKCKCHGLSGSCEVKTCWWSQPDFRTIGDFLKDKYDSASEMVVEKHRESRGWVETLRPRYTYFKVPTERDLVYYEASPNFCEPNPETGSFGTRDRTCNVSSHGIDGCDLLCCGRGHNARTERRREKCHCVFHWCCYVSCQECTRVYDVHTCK
Chain of DNA topoisomerase (A0A2S9PM60 whole entry): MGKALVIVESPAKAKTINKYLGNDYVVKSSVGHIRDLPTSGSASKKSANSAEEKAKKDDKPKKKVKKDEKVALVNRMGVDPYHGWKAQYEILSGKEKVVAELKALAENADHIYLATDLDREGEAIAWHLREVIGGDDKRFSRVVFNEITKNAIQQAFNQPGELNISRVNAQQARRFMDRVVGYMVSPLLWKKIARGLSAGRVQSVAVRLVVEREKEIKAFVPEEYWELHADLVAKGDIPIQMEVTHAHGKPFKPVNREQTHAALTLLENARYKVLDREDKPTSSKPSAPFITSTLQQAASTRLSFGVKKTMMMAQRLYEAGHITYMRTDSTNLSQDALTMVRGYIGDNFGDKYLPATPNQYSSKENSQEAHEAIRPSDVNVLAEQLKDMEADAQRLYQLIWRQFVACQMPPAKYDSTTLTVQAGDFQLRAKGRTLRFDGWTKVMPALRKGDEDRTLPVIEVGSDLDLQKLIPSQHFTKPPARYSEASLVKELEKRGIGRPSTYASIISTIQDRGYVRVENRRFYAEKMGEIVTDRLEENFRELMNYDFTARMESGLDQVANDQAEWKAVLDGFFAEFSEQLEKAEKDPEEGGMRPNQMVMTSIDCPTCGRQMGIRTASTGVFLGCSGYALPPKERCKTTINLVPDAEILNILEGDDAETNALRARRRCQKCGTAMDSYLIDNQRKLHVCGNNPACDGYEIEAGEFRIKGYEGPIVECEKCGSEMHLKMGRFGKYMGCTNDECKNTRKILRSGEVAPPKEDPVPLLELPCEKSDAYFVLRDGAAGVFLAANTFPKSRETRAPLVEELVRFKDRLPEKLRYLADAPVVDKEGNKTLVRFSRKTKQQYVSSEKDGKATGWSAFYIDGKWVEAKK
Chain of Nonstructural protein 1 (Q194T2 whole entry): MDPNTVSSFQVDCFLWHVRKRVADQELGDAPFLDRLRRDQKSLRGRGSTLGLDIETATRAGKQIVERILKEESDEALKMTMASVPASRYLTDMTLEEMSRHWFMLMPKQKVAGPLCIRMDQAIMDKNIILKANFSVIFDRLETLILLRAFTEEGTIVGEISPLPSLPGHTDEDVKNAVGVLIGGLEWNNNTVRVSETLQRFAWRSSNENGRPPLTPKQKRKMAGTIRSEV

## CCOc1ccc(-c2nc(CSCC(=O)NC3CC3)c(C)o2)cc1
[1]
  EC50: 0.241 µM (active)
[2]
  IC50: > 80 µM (inactive)
HEK293 [3]
  IC50: > 80 µM (inactive)
Protein Wnt-3a [4]
  IC50: > 21.8 µM (inactive)
Jurkat
  IC50: > 79 µM (inactive)
HEK293 [5]
  IC50: > 80 µM (inactive)

## Cc1cc(C(=O)Cn2nc(C(=O)O)c3ccccc3c2=O)c(C)n1-c1ccc(OC(F)F)cc1
DNA topoisomerase
  AC50: 4.1 µM (active)

## O=C(C1CCCCC1)N1CCN(c2ccnc3cc(Cl)ccc23)CC1
HEK293 [6]
  AC50: 12.5 µM (active)
Candida albicans [7]
  AC50: 1.01 µM (active)
Protein Wnt-3a [8]
  IC50: 10.4 µM (active)
Candida albicans [9]
  AC50: 200 µM (active)
Candida albicans [10]
  AC50: 5.02 µM (active)
Candida albicans [11]
  AC50: 0.688 µM (active)
Candida albicans [12]
  AC50: 0.661 µM (active)

## CC(=NNC(=S)Nc1ccc(C)cc1)c1ccccn1
Nonstructural protein 1
  IC50: 16.6 µM (active)
HEK293 [6]
  AC50: 0.149 µM (active)
[13]
  AC50: 0.793 µM (active)
